Laboratory results taken from patent US11040031B2, “Pyrazole derivatives as MALT1 inhibitors” (Janssen Pharmaceutica NV, priority 2018, dated 2021).

molecular target: T1, full-length MALT1 protein (Strep-MALT1(1-824)-His) (Homo sapiens, UniProt Q9UDY8); test: biochemical
T1 sequence (Q9UDY8 1-824): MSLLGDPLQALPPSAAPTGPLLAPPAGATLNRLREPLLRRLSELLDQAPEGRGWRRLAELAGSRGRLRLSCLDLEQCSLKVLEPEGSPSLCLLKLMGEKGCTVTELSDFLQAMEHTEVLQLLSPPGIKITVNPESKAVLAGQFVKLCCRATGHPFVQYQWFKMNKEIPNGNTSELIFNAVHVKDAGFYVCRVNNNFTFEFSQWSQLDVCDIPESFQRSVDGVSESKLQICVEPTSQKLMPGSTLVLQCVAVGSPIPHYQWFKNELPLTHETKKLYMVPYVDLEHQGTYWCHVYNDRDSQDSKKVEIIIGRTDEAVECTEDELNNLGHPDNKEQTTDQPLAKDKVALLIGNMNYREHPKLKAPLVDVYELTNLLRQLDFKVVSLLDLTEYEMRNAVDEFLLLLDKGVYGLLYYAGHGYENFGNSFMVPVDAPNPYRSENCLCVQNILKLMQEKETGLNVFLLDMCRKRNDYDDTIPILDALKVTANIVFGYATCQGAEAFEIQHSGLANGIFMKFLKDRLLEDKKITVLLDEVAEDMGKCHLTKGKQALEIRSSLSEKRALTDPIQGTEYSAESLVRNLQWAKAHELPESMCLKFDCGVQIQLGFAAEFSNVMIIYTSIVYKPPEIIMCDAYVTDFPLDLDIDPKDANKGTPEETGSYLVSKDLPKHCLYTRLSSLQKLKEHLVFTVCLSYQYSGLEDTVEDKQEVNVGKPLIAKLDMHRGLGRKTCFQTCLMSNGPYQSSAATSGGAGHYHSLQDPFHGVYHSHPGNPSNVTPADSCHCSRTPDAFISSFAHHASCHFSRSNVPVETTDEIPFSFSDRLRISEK
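Note: fluorogenic LRSR-AMC substrate cleavage by MALT1, 50 min compound preincubation then 4 h reaction at RT, 11-point dilution from 30 µM, scaled between enzyme-free and untreated enzyme controls.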

Going from `Cc1cnc([C@H]2CCCO2)cc1-n1ncc(C(=O)Nc2cnc(-n3nccn3)c(Cl)c2)c1C(F)(F)F` (single isomer, unassigned) [Cpd 203, (*R)—N-(5-chloro-6-(2H-1,2,3-triazol-2-yl)pyridin-3-yl)-1-(5-methyl-2-(tetrahydrofuran-2-yl)pyridin-4-yl)-5-(trifluoromethyl)-1H-pyrazole-4-carboxamide] to `Cc1cnc([C@@H]2CCCO2)cc1-n1ncc(C(=O)Nc2cnc(-n3nccn3)c(Cl)c2)c1C(F)(F)F` (single isomer, unassigned) [Cpd 204, (*S)—N-(5-chloro-6-(2H-1,2,3-triazol-2-yl)pyridin-3-yl)-1-(5-methyl-2-(tetrahydrofuran-2-yl)pyridin-4-yl)-5-(trifluoromethyl)-1H-pyrazole-4-carboxamide], the IC50 rises from 0.158 µM to 0.525 µM (3.3-fold).

`Cc1cnc([C@H]2COCCO2)cc1-n1ncc(C(=O)Nc2cnc(-n3nccn3)c(Cl)c2)c1C(F)(F)F` (single isomer, unassigned) [Cpd 205, (*S)-1-(2-(1,4-dioxan-2-yl)-5-methylpyridin-4-yl)-N-(5-chloro-6-(2H-1,2,3-triazol-2-yl)pyridin-3-yl)-5-(trifluoromethyl)-1H-pyrazole-4-carboxamide] and `Cc1cnc([C@@H]2COCCO2)cc1-n1ncc(C(=O)Nc2cnc(-n3nccn3)c(Cl)c2)c1C(F)(F)F` (single isomer, unassigned) [Cpd 206, (*R)-1-(2-(1,4-dioxan-2-yl)-5-methylpyridin-4-yl)-N-(5-chloro-6-(2H-1,2,3-triazol-2-yl)pyridin-3-yl)-5-(trifluoromethyl)-1H-pyrazole-4-carboxamide] are within 1.5-fold of each other in IC50: 1.91 µM for the first, 2.04 µM for the second.

Compared with `O=C(Nc1cnc(-n2nccn2)c(Cl)c1)c1cnn(-c2ccncc2F)c1C(F)(F)F` [Cpd 6, N-(5-Chloro-6-(2H-1,2,3-triazol-2-yl)pyridin-3-yl)-1-(3-fluoropyridin-4-yl)-5-(trifluoromethyl)-1H-pyrazole-4-carboxamide], `O=C(Nc1cnc(-n2nccn2)c(Cl)c1)c1cnn(-c2cccnc2)c1C(F)(F)F` [Cpd 12, N-(5-Chloro-6-(2H-1,2,3-triazol-2-yl)pyridin-3-yl)-1-(pyridin-3-yl)-5-(trifluoromethyl)-1H-pyrazole-4-carboxamide] is 1.6-fold higher in IC50: 0.832 µM for the first, 1.35 µM for the second. The first is the more potent here.

Going from `O=C(Nc1cnc(-n2nccn2)c(Cl)c1)c1cnn(-c2ccccn2)c1C(F)(F)F` [Cpd 8, N-(5-Chloro-6-(2H-1,2,3-triazol-2-yl)pyridin-3-yl)-1-(pyridin-2-yl)-5-(trifluoromethyl)-1H-pyrazole-4-carboxamide] to `O=C(Nc1cnc(-n2nccn2)c(Cl)c1)c1cnn(-c2cnccn2)c1C(F)(F)F` [Cpd 9, N-(5-Chloro-6-(2H-1,2,3-triazol-2-yl)pyridin-3-yl)-1-(pyrazin-2-yl)-5-(trifluoromethyl)-1H-pyrazole-4-carboxamide], the IC50 rises from 1.23 µM to 2.57 µM (2.1-fold). The first is the more potent here.

`O=C(Nc1cnc(-n2nccn2)c(Cl)c1)c1cnn(-c2ncccn2)c1C(F)(F)F` [Cpd 10, N-(5-Chloro-6-(2H-1,2,3-triazol-2-yl)pyridin-3-yl)-1-(pyrimidin-2-yl)-5-(trifluoromethyl)-1H-pyrazole-4-carboxamide] and `O=C(Nc1cnc(-n2nccn2)c(Cl)c1)c1cnn(-c2cncnc2)c1C(F)(F)F` [Cpd 15, N-(5-Chloro-6-(2H-1,2,3-triazol-2-yl)pyridin-3-yl)-1-(pyrimidin-5-yl)-5-(trifluoromethyl)-1H-pyrazole-4-carboxamide] are within 1.5-fold of each other in IC50: 4.37 µM for the first, 3.47 µM for the second.

First: N#Cc1ccc(-n2ncc(C(=O)Nc3cnc(-n4nccn4)c(Cl)c3)c2C(F)(F)F)nc1 [Cpd 11, N-(5-Chloro-6-(2H-1,2,3-triazol-2-yl)pyridin-3-yl)-1-(5-cyanopyridin-2-yl)-5-(trifluoromethyl)-1H-pyrazole-4-carboxamide]
Second: COc1ccc(-n2ncc(C(=O)Nc3cnc(-n4nccn4)c(Cl)c3)c2C(F)(F)F)cn1 [Cpd 13, N-(5-Chloro-6-(2H-1,2,3-triazol-2-yl)pyridin-3-yl)-1-(6-methoxypyridin-3-yl)-5-(trifluoromethyl)-1H-pyrazole-4-carboxamide]
The IC50 of the first is 2.7-fold higher: 4.57 µM for the first, 1.7 µM for the second.
